One assay deals with VEGFR3 (Homo sapiens, UniProt P35916). Kind of assay: VEGFR3 Phospho ELISA Assay. Type of assay: cell-based. Particulars: HMVEC-dLyAD cells, treated for 1 hour, VEGFC stimulated; phospho VEGFR3 relative to Total VEGFR3.
The target of assay [1] is VEGFR3 cytoplasmic domain (Homo sapiens, UniProt P35916). Kind of assay: VEGFR3 Biochemical Assay (AlphaScreen). Particulars: GST-fusion enzyme, 500 μM ATP, 90 minutes at 30 degree Celsius (modified form in some cases: Hexa-His-fusion enzyme, 1 μM ATP); read-out: IC50. Background: Alpha assays give light when donor and acceptor beads are brought close together.
Sequence of VEGFR3 cytoplasmic domain (P35916 798-1298 isoform P35916-1): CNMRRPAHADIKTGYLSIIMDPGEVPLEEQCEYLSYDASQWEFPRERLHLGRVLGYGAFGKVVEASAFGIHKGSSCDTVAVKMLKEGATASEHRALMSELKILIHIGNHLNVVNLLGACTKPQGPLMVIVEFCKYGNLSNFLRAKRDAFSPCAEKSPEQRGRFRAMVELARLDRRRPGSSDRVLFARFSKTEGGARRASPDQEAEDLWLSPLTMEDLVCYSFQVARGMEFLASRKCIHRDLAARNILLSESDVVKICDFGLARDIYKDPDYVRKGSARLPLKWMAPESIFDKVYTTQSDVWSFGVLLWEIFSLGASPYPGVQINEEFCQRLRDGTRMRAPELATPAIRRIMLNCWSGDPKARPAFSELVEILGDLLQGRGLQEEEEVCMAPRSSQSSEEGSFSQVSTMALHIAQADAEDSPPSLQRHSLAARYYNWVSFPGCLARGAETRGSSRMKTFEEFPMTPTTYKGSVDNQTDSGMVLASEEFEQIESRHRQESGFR
For a further assay, the target named is T1, VEGFR2 (Homo sapiens, UniProt P35968).
T1 construct: host or cells: HUVEC
T1 sequence (P35968 20-1356): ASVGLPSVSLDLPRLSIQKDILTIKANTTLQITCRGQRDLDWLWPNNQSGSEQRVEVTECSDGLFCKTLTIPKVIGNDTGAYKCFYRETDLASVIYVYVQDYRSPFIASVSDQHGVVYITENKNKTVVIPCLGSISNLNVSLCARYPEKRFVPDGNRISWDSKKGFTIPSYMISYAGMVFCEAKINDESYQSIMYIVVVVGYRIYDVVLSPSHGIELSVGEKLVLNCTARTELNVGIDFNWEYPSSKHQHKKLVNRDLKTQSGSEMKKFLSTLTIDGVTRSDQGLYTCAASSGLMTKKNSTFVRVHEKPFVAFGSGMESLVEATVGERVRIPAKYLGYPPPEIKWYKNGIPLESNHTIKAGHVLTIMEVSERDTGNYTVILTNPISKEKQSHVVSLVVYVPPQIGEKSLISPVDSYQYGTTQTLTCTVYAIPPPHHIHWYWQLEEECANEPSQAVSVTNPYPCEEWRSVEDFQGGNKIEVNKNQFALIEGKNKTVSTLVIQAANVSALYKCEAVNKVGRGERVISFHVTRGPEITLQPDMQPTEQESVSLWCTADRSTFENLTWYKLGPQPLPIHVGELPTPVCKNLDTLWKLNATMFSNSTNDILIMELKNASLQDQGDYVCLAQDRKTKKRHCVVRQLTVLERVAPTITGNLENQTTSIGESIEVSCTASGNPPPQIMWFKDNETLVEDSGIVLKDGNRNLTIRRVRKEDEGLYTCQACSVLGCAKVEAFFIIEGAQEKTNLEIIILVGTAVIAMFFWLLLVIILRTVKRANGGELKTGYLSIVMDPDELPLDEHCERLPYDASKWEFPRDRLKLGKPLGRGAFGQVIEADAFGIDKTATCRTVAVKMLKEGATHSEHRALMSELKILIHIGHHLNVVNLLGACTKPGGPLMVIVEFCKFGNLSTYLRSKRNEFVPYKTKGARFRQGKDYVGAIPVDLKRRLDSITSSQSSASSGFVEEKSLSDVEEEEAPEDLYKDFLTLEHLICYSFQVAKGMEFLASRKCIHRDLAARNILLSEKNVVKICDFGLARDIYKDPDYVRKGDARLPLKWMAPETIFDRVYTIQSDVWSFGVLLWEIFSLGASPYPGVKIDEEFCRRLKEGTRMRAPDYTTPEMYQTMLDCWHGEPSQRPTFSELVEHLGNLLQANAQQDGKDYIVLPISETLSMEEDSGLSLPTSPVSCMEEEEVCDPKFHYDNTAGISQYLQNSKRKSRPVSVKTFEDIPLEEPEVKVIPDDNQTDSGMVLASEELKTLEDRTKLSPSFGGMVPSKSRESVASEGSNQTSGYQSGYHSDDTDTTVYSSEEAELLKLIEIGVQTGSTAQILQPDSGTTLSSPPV
Description: VEGFR2 Phospho ELISA Assay. The settings on record: HUVEC, treated for 1 hour, VEGF stimulated; phospho VEGFR2 relative to Total VEGFR2. Type of assay: cell-based. On the technique in general: In an ELISA, binding on a coated surface is turned into a signal by an enzyme label.

Sequence of VEGFR3 (P35916 25-1363): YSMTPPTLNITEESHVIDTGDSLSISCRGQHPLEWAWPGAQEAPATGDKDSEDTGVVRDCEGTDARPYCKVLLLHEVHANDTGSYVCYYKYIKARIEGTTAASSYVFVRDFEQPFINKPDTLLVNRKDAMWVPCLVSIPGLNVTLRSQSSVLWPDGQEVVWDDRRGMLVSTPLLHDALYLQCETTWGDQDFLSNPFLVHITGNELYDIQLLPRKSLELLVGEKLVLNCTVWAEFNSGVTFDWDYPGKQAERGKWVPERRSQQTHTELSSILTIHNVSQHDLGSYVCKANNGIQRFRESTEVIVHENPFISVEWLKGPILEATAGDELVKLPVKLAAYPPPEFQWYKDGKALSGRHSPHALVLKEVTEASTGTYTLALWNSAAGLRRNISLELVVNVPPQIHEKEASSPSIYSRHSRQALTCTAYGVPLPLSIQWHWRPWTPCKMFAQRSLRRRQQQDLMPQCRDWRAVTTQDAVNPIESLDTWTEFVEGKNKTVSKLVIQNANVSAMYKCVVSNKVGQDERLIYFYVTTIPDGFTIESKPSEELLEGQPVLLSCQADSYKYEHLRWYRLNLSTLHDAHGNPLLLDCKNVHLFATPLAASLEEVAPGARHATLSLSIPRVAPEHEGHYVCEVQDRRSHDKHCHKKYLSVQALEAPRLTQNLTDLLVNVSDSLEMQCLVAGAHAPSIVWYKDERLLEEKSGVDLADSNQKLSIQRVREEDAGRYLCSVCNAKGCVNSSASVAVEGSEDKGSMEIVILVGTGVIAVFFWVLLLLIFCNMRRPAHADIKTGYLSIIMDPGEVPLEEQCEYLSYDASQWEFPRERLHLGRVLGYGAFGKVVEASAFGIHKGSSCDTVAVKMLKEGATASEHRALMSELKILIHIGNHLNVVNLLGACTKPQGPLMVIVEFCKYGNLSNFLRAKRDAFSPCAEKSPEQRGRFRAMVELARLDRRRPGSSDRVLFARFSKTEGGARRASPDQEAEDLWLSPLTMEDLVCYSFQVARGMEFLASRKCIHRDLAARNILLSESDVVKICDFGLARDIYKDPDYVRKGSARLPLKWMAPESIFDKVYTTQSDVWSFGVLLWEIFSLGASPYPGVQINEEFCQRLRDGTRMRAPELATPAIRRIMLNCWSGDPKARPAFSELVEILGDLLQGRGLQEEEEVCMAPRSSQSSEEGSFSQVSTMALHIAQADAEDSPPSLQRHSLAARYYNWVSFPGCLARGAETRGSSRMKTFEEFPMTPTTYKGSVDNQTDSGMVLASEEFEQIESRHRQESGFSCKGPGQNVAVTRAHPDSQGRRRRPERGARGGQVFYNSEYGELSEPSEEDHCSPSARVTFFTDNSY
Description for VEGFR2: Adult human umbilical vein endothelial cells (HUVEC) (Cat# CC-2519, Lonza) were seeded into clear-bottom, TC treated 12 well plates (Cat #665180, Greiner Bio-One) in EGM-2 (Cat# CC-3162, Lonza) at 180,000 cells/well (volume 1 mL), and the plates incubated at 37° C. and 5% CO2 for 6 hours.
96 well Maxisorp immuno plates (Cat #439454, Nunc) were coated with 100 μL of Total VEGFR2 capture antibody (Part #841434, Human Total VEGFR2/FLT4 ELISA Kit, Cat # DYC1780, R&D Systems), or Phospho VEGFR2 Capture antibody (Part #841419, Human Phospho VEGFR2/FLT4 ELISA Kit, Cat# DYC1766, R&D Systems). The plates were covered and incubated at room temperature overnight.
The coating antibody was flicked out and the plates washed three times with Wash Buffer (Phosphate buffered saline (137 mM NaCl, 2.7 nM KCl, 8.1 nM Na2HPO4, 1.5 mL KH2PO4, pH 7.2-7.4), 0.05% Tween 20). 300 μL of Blocking buffer (1% v/v BSA (Cat# A8412, Sigma) in PBS) was then added to wells and plate incubated for 2 hours at room temperature. Blocking solution is flicked out and plates washed three times and tapped dry.
Compound dilution series were prepared in EBM-2 (Cat # CC-3156, Lonza)+0.1% BSA (Cat# A8412, Sigma) with constant 0.1% DMSO concentration. 427.5 μL of sample or vehicle control was added to the cell monolayers. Cells are treated for 1 hour at 37° C. and 5% CO2. 50 ng/mL Recombinant human VEGF (Cat #293-VC, R & D Systems) added to wells and plates incubated for an additional 10 minutes at 37° C. and 5% CO2.
The media and compounds were removed and the cell monolayer washed once in Dulbecco's Phosphate Buffered Saline (Cat #21600-044, Invitrogen). 130 μL of Lysis buffer added to wells and cell lysate harvested and transferred to tubes and stored on ice. Complete lysis buffer was prepared by adding 10 μL Protease Inhibitor Cocktail (Cat # P8340, Sigma-Aldrich), 10 μL PMSF (Phenylmethanesulfonyl fluoride, Cat # P7626, Sigma-Aldrich, prepared as 500 mM DMSO stock) per 1 mL of Phosphosafe™ Extraction Reagent (Cat #71296, Merck).
The plates were then washed three times in wash buffer as described above and tapped dry.
For detection of Total VEGFR2 100 μL of Detection antibody (Total VEGFR2 Detection Antibody Part#841435 in Total VEGFR2 kit) diluted in IC Diluent #14 (20 mM Tris, 137 mM CaCl2, 0.05% Tween20, 0.1% BSA) was added to wells and the plate incubated for 2 hours at room temperature. The plate was then washed three times in wash buffer and tapped dry. 100 μL of streptavidin-HPR diluted in IC diluent #14 Streptavidin-HRP, Part #890803 in Total VEGFR2 kit) was added to wells and incubated at room temperature for 20 minutes followed by washing as described above. 100 μL Substrate solution (3,3′,5,5′-Tetramethylbenzidine (TMB) Liquid Substrate System for ELISA, Cat # T0440, Sigma-Aldrich) was added and the plate incubated for 20 minutes in the dark at room temperature followed by the addition of 50 μL stop solution (2 M H2SO4).
Total VEGFR2 levels were quantified using a Multiskan Ascent plate reader and Ascent software fitted with 450 nm filter.
For detection of Phospho VEGFR2, 100 μL of Detection antibody (Anti-Phospho-Tyrosine-HRP Detection Antibody, Part #841403 in Phospho VEGFR2 kit) was diluted in IC Diluent 14 (20 mM Tris, 137 mM CaCl2, 0.05% Tween20, 0.1% BSA), was added to the wells and the plate incubated for 2 hours at room temperature. The plate was then washed three times in wash buffer as described above and tapped dry. 100 μL Substrate solution (3,3′,5,5′-Tetramethylbenzidine (TMB) Liquid Substrate System for ELISA, Cat # T0440, Sigma-Aldrich) was added and the plate incubated for 20 minutes in the dark at room temperature followed by the addition of 50 μL stop solution (2 M H2SO4).
Phospho VEGFR2 levels were quantified using a Multiscan ascent plate reader and ascent software fitted with 450 nm filter.
IC50 values are determined by first calculating the level of phospho VEGFR2 relative to Total VEGFR2 according to the following formula:

By IC50 is commonly meant the point on the concentration scale where inhibition reaches its midpoint. Regarding `CC(NC(=O)OC(C)(C)C)c1ccc(Nc2ncc(Cl)c(CCc3ccccc3C3(C(N)=O)CC3)n2)cc1` (centres unmarked) [Compound 24, tert-Butyl (1-(4-((4-(2-(1-carbamoylcyclopropyl)phenethyl)-5-chloropyrimidin-2-yl)amino)phenyl)ethyl)carbamate], the IC50 against VEGFR3 was 25 nM; in assay [1], 2 nM.

Turning to `CN1CCC(n2cc(Nc3ncc(Cl)c(CCc4ccccc4C4(C(N)=O)CC4)n3)cn2)CC1` [Compound 18, 1-(2-(2-(5-chloro-2-((1-(1-methylpiperidin-4-yl)-1H-pyrazol-4-yl)amino)pyrimidin-4-yl)ethyl)phenyl)cyclopropanecarboxamide], the IC50 turned out to be 5 nM on VEGFR3, 21 nM at VEGFR2 and 3 nM in assay [1].

As for `CC(C(N)=O)c1ccccc1CCc1nc(Nc2cnn(C)c2)ncc1Cl` (centres unmarked) [Compound 36, 2-(2-(2-(5-Chloro-2-(1-methyl-1H-pyrazol-4-ylamino)pyrimidin-4-yl)ethyl)phenyl) propanamide], the IC50 at VEGFR3 worked out at 76 nM; at VEGFR2, 8170 nM; in assay [1], 16 nM.

`CCC(C(N)=O)c1ccccc1CCc1nc(Nc2ccc(C3CCNCC3)cc2)ncc1C(F)(F)F` (single isomer, unassigned) [Compound 1-1A, 2-(2-(2-(2-((4-(Piperidin-4-yl)phenyl)amino)-5-(trifluoromethyl)pyrimidin-4-yl)ethyl)phenyl)butanamide]: the figures for the IC50 (against VEGFR3; in assay [1]) were 329 nM and 103 nM, respectively.

Consider `NC(=O)C1(c2ccccc2CCc2nc(Nc3ccc(C4CCNCC4)nc3)ncc2C(F)(F)F)CC1` [Compound 68, 1-(2-(2-(2-((6-(Piperidin-4-yl)pyridin-3-yl)amino)-5-(trifluoromethyl)pyrimidin-4-yl)ethyl)phenyl)cyclopropanecarboxamide], for which the results for the IC50 (on VEGFR3; against VEGFR2; in assay [1]) were 51 nM, 4080 nM and 28 nM, respectively.

Turning to `COc1ccc(Nc2ncc(C(F)(F)F)c(CCc3ccccc3C3(C(N)=O)CC3)n2)cn1` [Compound 64, 1-(2-(2-(2-((6-Methoxypyridin-3-yl)amino)-5-(trifluoromethyl)pyrimidin-4-yl)ethyl)phenyl)cyclopropanecarboxamide], the IC50 at VEGFR3 was 394 nM; in assay [1] it was 8 nM.

As for `NC(=O)C1(c2ccccc2CCc2nc(Nc3cnn(C4CCNC4)c3)ncc2Cl)CC1` (centres unmarked) [Compound 20, 1-(2-(2-(5-Chloro-2-(1-(pyrrolidin-3-yl)-1H-pyrazol-4-ylamino)pyrimidin-4-yl)ethyl)phenyl)cyclopropanecarboxamide], the IC50 on VEGFR3 amounted to 38 nM; at VEGFR2 it was 1760 nM; in assay [1], 7 nM.

Consider `Cn1cc(Nc2ncc(Cl)c(CCc3ccccc3C3(C(N)=O)CC3)n2)cn1` [Compound 13, 1-(2-(2-(5-Chloro-2-((1-methyl-1H-pyrazol-4-yl)amino)pyrimidin-4-yl)ethyl)phenyl)cyclopropanecarboxamide], for which the IC50 on VEGFR3 was found to be 9 nM; in assay [1] it was 4 nM.

Take `NC(=O)C1(c2ccccc2CCc2nc(Nc3cnn(C4CNC4)c3)ncc2Cl)CC1` [Compound 14, 1-(2-(2-(2-((1-(Azetidin-3-yl)-1H-pyrazol-4-yl)amino)-5-chloropyrimidin-4-yl)ethyl)phenyl)cyclopropanecarboxamide]: the IC50 on VEGFR3 worked out at 30 nM; against VEGFR2 it was 357 nM; in assay [1], 6 nM.

Consider `NC(=O)C1(c2ccccc2CCc2nc(Nc3cn[nH]c3)ncc2Cl)CC1` [Compound 19, 1-(2-(2-(2-(1H-Pyrazol-4-ylamino)-5-chloropyrimidin-4-yl)ethyl)phenyl)cyclopropanecarboxamide], for which the IC50 at VEGFR3 is 11 nM; on VEGFR2, 248 nM; in assay [1] it was 3 nM.

For the compound `NC(=O)C1(c2ccccc2CCc2nc(Nc3ccc(C4CCNCC4)nc3)ncc2Cl)CC1` [Compound 15, 1-(2-(2-(5-Chloro-2-((6-(piperidin-4-yl)pyridin-3-yl)amino)pyrimidin-4-yl)ethyl)phenyl)cyclopropanecarboxamide], the IC50 on VEGFR3 was determined as 51 nM; against VEGFR2, 2000 nM; in assay [1] it was 11 nM.

For `CC(N)c1ccc(Nc2ncc(Cl)c(CCc3ccccc3C3(C(N)=O)CC3)n2)cc1` (centres unmarked) [Compound 24A, 1-(2-(2-(2-((4-(1-Aminoethyl)phenyl)amino)-5-chloropyrimidin-4-yl)ethyl)phenyl)cyclopropanecarboxamide], the IC50 on VEGFR2 came out at 209 nM; in assay [1] it was 14 nM.

Turning to `NC(=O)C1(c2ccccc2CCc2nc(Nc3cnn(C4CCNCC4)c3)ncc2Cl)CC1` [Compound 17, 1-(2-(2-(5-Chloro-2-((1-(piperidin-4-yl)-1H-pyrazol-4-yl)amino)pyrimidin-4-yl)ethyl)phenyl)cyclopropanecarboxamide], the IC50 at VEGFR3 was determined as 62 nM; at VEGFR2, 393 nM; in assay [1] it was 9 nM.

Consider `CCC(C(N)=O)c1ccccc1CCc1nc(Nc2ccc(C3CCNCC3)cc2)ncc1C(F)(F)F` (single isomer, unassigned) [Compound 1-2A, 2-(2-(2-(2-((4-(Piperidin-4-yl)phenyl)amino)-5-(trifluoromethyl)pyrimidin-4-yl)ethyl)phenyl)butanamide], for which the IC50 at VEGFR3 worked out at 315 nM; in assay [1] it was 75 nM.

At VEGFR2, `CC(C(N)=O)c1ccccc1CCc1nc(Nc2cnn(C3CCN(C)CC3)c2)ncc1C(F)(F)F` (single isomer, unassigned) [Compound 57-1A, 2-(2-(2-(2-((1-(1-Methylpiperidin-4-yl)-1H-pyrazol-4-yl)amino)-5-(trifluoromethyl)pyrimidin-4-yl)ethyl)phenyl)propanamide] returned an IC50 of 518 nM.

As to `Cn1cc(Nc2ncc(Cl)c(CCc3ccccc3C(C)(C)C(N)=O)n2)cn1` [Compound 45, 2-(2-(2-(5-Chloro-2-((1-methyl-1H-pyrazol-4-yl)amino)pyrimidin-4-yl)ethyl)phenyl)-2-methylpropanamide], the IC50 came to 23 nM against VEGFR3, 370 nM on VEGFR2 and 3 nM in assay [1].

For `NC(=O)C1(c2ccccc2CCc2nc(Nc3ccc(C4CCNCC4)cc3)ncc2C(F)(F)F)CC1` [Compound 2, 1-(2-(2-(2-((4-(Piperidin-4-yl)phenyl)amino)-5-(trifluoromethyl)pyrimidin-4-yl)ethyl)phenyl)cyclopropanecarboxamide], the values for the IC50 (against VEGFR3; against VEGFR2; in assay [1]) were 26 nM, 283 nM and 10 nM, respectively.

For the compound `CC(C(N)=O)c1ccccc1CCc1nc(Nc2cn[nH]c2)ncc1Cl` (centres unmarked) [Compound 35, 2-(2-(2-(2-(1H-Pyrazol-4-ylamino)-5-chloropyrimidin-4-yl)ethyl)phenyl)propanamide], the IC50 came out at 64 nM against VEGFR3, 3790 nM at VEGFR2 and 9 nM in assay [1].

Turning to `CN1CCC(c2ccc(Nc3ncc(Cl)c(CCc4ccccc4C4(C(N)=O)CC4)n3)cc2)CC1` [Compound 8, 1-(2-(2-(5-chloro-2-((4-(1-methylpiperidin-4-yl)phenyl)amino)pyrimidin-4-yl)ethyl)phenyl)cyclopropanecarboxamide], the IC50 on VEGFR3 is 19 nM; on VEGFR2, 897 nM; in assay [1], 10 nM.

As for `NC(=O)C1(c2ccccc2CCc2nc(Nc3ccc(C4CCNCC4)cc3)ncc2Cl)CC1` [Compound 7, 1-(2-(2-(5-chloro-2-((4-(piperidin-4-yl)phenyl)amino)pyrimidin-4-yl)ethyl)phenyl)cyclopropanecarboxamide], the IC50 on VEGFR3 is 38 nM; in assay [1] it was 10 nM.

On to `NC(=O)C1(c2cccc(CCc3nc(Nc4cnn(C5CCNCC5)c4)ncc3C(F)(F)F)c2)CC1` [Compound 53, 1-(3-(2-(2-((1-(Piperidin-4-yl)-1H-pyrazol-4-yl)amino)-5-(trifluoromethyl)pyrimidin-4-yl)ethyl)phenyl)cyclopropanecarboxamide], for which the IC50 in assay [1] is 228 nM.

On to `NC(=O)C1(c2ccccc2CCc2nc(Nc3cnn(CC(F)(F)F)c3)ncc2Cl)CC1` [Compound 29, 1-(2-(2-(5-Chloro-2-((1-(2,2,2-trifluoroethyl)-1H-pyrazol-4-yl)amino)pyrimidin-4-yl)ethyl)phenyl)cyclopropanecarboxamide], for which the IC50 in assay [1] was determined as 8 nM.

With `CC(C(N)=O)c1ccccc1CCc1nc(Nc2ccnnc2)ncc1Cl` (centres unmarked) [Compound 42, 2-(2-(2-(5-Chloro-2-(pyridazin-4-ylamino)pyrimidin-4-yl)ethyl)phenyl)propanamide], the IC50 in assay [1] turned out to be 154 nM.

Regarding `Cc1cnc(Nc2cnn(C)c2)nc1CCc1ccccc1C(C)C(N)=O` (centres unmarked) [Compound 51, 2-(2-(2-(5-Methyl-2-((1-methyl-1H-pyrazol-4-yl)amino)pyrimidin-4-yl)ethyl)phenyl)propanamide], the IC50 against VEGFR3 turned out to be 526 nM; in assay [1], 15 nM.

On to `CC(C)n1cc(Nc2ncc(Cl)c(CCc3ccccc3C3(C(N)=O)CC3)n2)cn1` [Compound 30, 1-(2-(2-(5-Chloro-2-((1-isopropyl-1H-pyrazol-4-yl)amino)pyrimidin-4-yl)ethyl)phenyl)cyclopropanecarboxamide], for which the IC50 in assay [1] turned out to be 4 nM.

As to `CN1CCC(c2ccc(Nc3ncc(C(F)(F)F)c(CCc4ccccc4C4(C(N)=O)CC4)n3)cn2)CC1` [Compound 69, 1-(2-(2-(2-((6-(1-Methylpiperidin-4-yl)pyridin-3-yl)amino)-5-(trifluoromethyl)pyrimidin-4-yl)ethyl)phenyl)cyclopropanecarboxamide], in assay [1], the IC50 was 63 nM.

As for `Cc1cnc(Nc2ccc(C3CCN(C)CC3)nc2)nc1CCc1ccccc1C1(C(N)=O)CC1` [Compound 49, 1-(2-(2-(5-Methyl-2-((6-(1-methylpiperidin-4-yl)pyridin-3-yl)amino)pyrimidin-4-yl)ethyl)phenyl)cyclopropanecarboxamide], the IC50 in assay [1] was found to be 23 nM.

For the origin of these results see US20160009686A1, “VEGFR3 INHIBITORS” (CANCER THERAPEUTICS CRC PTY LIMITED, priority 2012, published 2016).
